Experimental data published in ChEMBL document CHEMBL5032525, “In vitro, ex vivo and in vivo short-term screening of DHEA nitrate derivatives activity over Trypanosoma cruzi Ninoa and TH strains from Oaxaca State, México” (Bioorg Med Chem, 2021).

Legend:
Trypanosoma cruzi [1] = experiment: microbe, parasite or virus in culture; type: functional, organism-based; conditions: MHOM/MX/1994/Ninoa, 48 h
Description: Trypanocidal activity against Trypanosoma cruzi MHOM/MX/1994/Ninoa assessed as inhibition of parasite growth measured after 48 hrs by MTT assay

in vitro [2] = conditions: mouse
Description: Selectivity index, ratio of CC50 for mouse J774.2 cells to IC50 for Trypanosoma cruzi ITRI/MX/2018/TH

[3] = Cytotoxicity against mouse J774.2 cells assessed as reduction in cell viability measured after 48 hrs by resazurin dye based assay
Trypanosoma cruzi [4] = experiment: microbe, parasite or virus in culture; type: functional, organism-based; conditions: MHOM/MX/1994/Ninoa, 24 h
Description: Antitrypanosomal activity against Trypanosoma cruzi MHOM/MX/1994/Ninoa infected in animal assessed as reduction in viable parasite in blood measured after 24 hrs by neubauer chamber assay

Trypanosoma cruzi [5] = experiment: microbe, parasite or virus in culture; type: functional, organism-based; conditions: ITRI/MX/2018/TH, 48 h
Description: Trypanocidal activity against Trypanosoma cruzi ITRI/MX/2018/TH assessed as inhibition of parasite growth measured after 48 hrs by MTT assay

in vitro [6] = conditions: mouse; remark: listed apart in the source
Description: Selectivity index, ratio of CC50 for mouse J774.2 cells to IC50 for Trypanosoma cruzi MHOM/MX/1994/Ninoa

Structure (SMILES)	IC50 (Trypanosoma cruzi [1]) [µM]	selectivity ratio (in vitro [2]; J774.2 cells)	CC50 at 48 h ([3]; J774.2 cells) [µM]	IC50 (Trypanosoma cruzi [4]) [µM]	IC50 (Trypanosoma cruzi [5]) [µM]	selectivity ratio (in vitro [6]; J774.2 cells)	selectivity ratio (in vitro [2])	CC50 at 48 h ([3]; j774.2) [µM]	selectivity ratio (in vitro [6])
C#C[C@]1(O)CC[C@H]2[C@@H]3CC=C4C[C@@H](O[N+](=O)[O-])CC[C@]4(CO[N+](=O)[O-])[C@H]3CC[C@@]21C	2.8	0.13	39.8	> 300	321	14.2	–	–	–
C[C@]12CC[C@H](O[N+](=O)[O-])CC1=CC[C@@H]1[C@@H]2CC[C@]2(C)C(=O)CC[C@@H]12	33.2	1	0.2	> 300	0.2	0.01	–	–	–
C#C[C@]1(O[N+](=O)[O-])CC[C@H]2[C@@H]3CC=C4C[C@@H](O[N+](=O)[O-])CC[C@]4(CO[N+](=O)[O-])[C@H]3CC[C@@]21C	2.12	0.07	22.3	> 300	321	11	–	–	–
C[C@]12CC[C@H]3[C@@H](CC=C4C[C@@H](O[N+](=O)[O-])CC[C@@]43CO[N+](=O)[O-])[C@@H]1CCC2=O	48.3	0.3	130	295	430	2.68	–	–	–
C[C@]12CC[C@H]3[C@@H](CC=C4C[C@@H](O[N+](=O)[O-])CC[C@@]43C)[C@@H]1CC[C@@H]2O[N+](=O)[O-]	347	1.89	151	> 300	77	0.44	–	–	–
C[C@]12CC[C@H]3[C@@H](CC=C4C[C@@H](O)CC[C@@]43CO)[C@@H]1CCC2=O	36.2	0.15	75.4	> 300	476	2.08	–	–	–
C[C@]12CC[C@H]3[C@@H](CC=C4C[C@@H](O)CC[C@@]43C)[C@@H]1CC[C@@H]2O [ANDROSTENEDIOL]	2.23	–	–	> 300	37.1	–	7.5	278	125
O=C(Cn1ccnc1[N+](=O)[O-])NCc1ccccc1 [BENZNIDAZOLE]	–	–	–	–	39.1	–	–	–	–
CC1CS(=O)(=O)CCN1/N=C/c1ccc([N+](=O)[O-])o1 (stereo unspecified) [NIFURTIMOX]	7.09	–	–	–	19.3	–	–	–	–
C[C@]12CC[C@H](O)CC1=CC[C@@H]1[C@@H]2CC[C@]2(C)C(=O)CC[C@@H]12 [PRASTERONE]	62	14.3	198	> 300	13.8	3.19	–	–	–
